What was measured:
pigweed = assay: Test B pre/postemergence pigweed; type: in vivo, Amaranthus retroflexus
Procedure, shortened: (§1)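 Response is a visual 0-to-10 score relative to untreated plants, where 0 means no effect and 10 means complete control, taken twelve to sixteen days after application. Treatments went onto soil at planting and onto foliage of 1- to 4-leaf plants, using a surfactant-containing non-phytotoxic solvent.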

crabgrass = assay: Test B pre/postemergence crabgrass; type: in vivo, Digitaria sanguinalis
Procedure, shortened: as §1

smallflower flatsedge = assay: Test B flood test smallflower flatsedge; type: in vivo, Cyperus difformis
Procedure, shortened: (§2)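 Read-out is a visual response score from 0 (no effect) to 10 (complete control), assigned by comparison with untreated controls. Treatment was applied at the 2-leaf stage, and plants stayed in the greenhouse for twelve to sixteen days before scoring.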

corn = assay: Test B pre/postemergence corn; type: in vivo, Zea mays
Procedure, shortened: as §1

rice = assay: Test B flood test rice; type: in vivo, Oryza sativa
Procedure, shortened: as §2

purple nutsedge = assay: Test B pre/postemergence purple nutsedge; type: in vivo, Cyperus rotundus
Procedure, shortened: as §1

bedstraw = assay: Test B pre/postemergence bedstraw; type: in vivo, Galium aparine; conditions: Postemergence
Procedure, shortened: as §1

wild oat = assay: Test B pre/postemergence wild oat; type: in vivo, Avena fatua
Procedure, shortened: as §1

wheat = assay: Test B pre/postemergence wheat; type: in vivo, Triticum aestivum
Procedure, shortened: as §1

duck salad = assay: Test B flood test duck salad; type: in vivo, Heteranthera limosa
Procedure, shortened: as §2

soybean = assay: Test B pre/postemergence soybean; type: in vivo, Glycine max
Procedure, shortened: as §1

rape = assay: Test B pre/postemergence rape; type: in vivo, Brassica napus
Procedure, shortened: as §1

surinam grass = assay: Test B pre/postemergence surinam grass; type: in vivo, Brachiaria decumbens
Procedure, shortened: as §1

blackgrass = assay: Test B pre/postemergence blackgrass; type: in vivo, Alopecurus myosuroides
Procedure, shortened: as §1

sugar beet = assay: Test B pre/postemergence sugar beet; type: in vivo, Beta vulgaris
Procedure, shortened: as §1

velvetleaf = assay: Test B pre/postemergence velvetleaf; type: in vivo, Abutilon theophrasti
Procedure, shortened: as §1

[1] = Postemergence, Rate 125 g/ha, scale 0 to 10, 0 is no effect, 10 is complete control
[2] = Preemergence, Rate 62 g/ha, scale of 0 to 10 where 0 is no effect and 10 is complete control
[3] = Preemergence, Rate 250 g/ha, scale of 0 to 10 where 0 is no effect and 10 is complete control
[4] = Preemergence, Rate 500 g/ha, scale of 0 to 10 where 0 is no effect and 10 is complete control
[5] = Rate 62 g/ha, Postemergence, scale 0 to 10 (0 no effect, 10 complete control)
[6] = Rate 250 g/ha, Postemergence, scale of 0 to 10 where 0 is no effect and 10 is complete control
[7] = Rate 500 g/ha, Postemergence, scale 0 to 10, 0 no effect, 10 complete control
[8] = Rate 62 g/ha, headed Pre-emergence (flood test species), scale 0 to 10 (0 no effect, 10 complete control)
[9] = Rate 125 g/ha, Pre-emergence, flood test species, scale 0 to 10 where 0 is no effect and 10 is complete control
[10] = Rate 250 g/ha, Pre-emergence, flood-test species, scale 0 to 10, 0 is no effect, 10 is complete control
[11] = Rate 500 g/ha, Pre-emergence, flood test species, scale 0 to 10 (0 no effect, 10 complete control)

CC(C)N(C(=O)n1oc(=O)n(C2CC3CCC2C3)c1=O)c1ccc(F)cc1F (stereo not shown) [Compound 326]
Plant response rating, Redroot pigweed (pigweed; [1]): 4
Redroot pigweed plant response rating (pigweed; [2]): 1
Redroot pigweed plant response rating (0 to 10 scale) (pigweed; Preemergence, Rate 125 g/ha): 3
Redroot pigweed plant response rating (pigweed; [3]): 6
Redroot pigweed plant response rating (pigweed; [4]): 7
Redroot pigweed plant response rating (pigweed; [5]): 3
Plant response rating, Redroot pigweed (pigweed; [6]): 4
Plant response rating, Redroot pigweed (pigweed; [7]): 7
Plant response rating, Crabgrass (crabgrass; [1]): 0
Crabgrass plant response rating (crabgrass; [2]): 0
Crabgrass plant response rating (0 to 10 scale) (crabgrass; Preemergence, Rate 125 g/ha): 0
Crabgrass plant response rating (crabgrass; [3]): 3
Crabgrass plant response rating (crabgrass; [4]): 5
Crabgrass plant response rating (crabgrass; [5]): 0
Plant response rating, Crabgrass (crabgrass; [6]): 1
Plant response rating, Crabgrass (crabgrass; [7]): 3
S. Flatsedge plant response rating (smallflower flatsedge; [8]): 0
S. Flatsedge plant response rating (smallflower flatsedge; [9]): 0
S. Flatsedge plant response rating (smallflower flatsedge; [10]): 0
S. Flatsedge plant response rating (smallflower flatsedge; [11]): 0
Plant response rating, Corn (corn; [1]): 0
Corn plant response rating (corn; [2]): 0
Corn plant response rating (0 to 10 scale) (corn; Preemergence, Rate 125 g/ha): 0
Corn plant response rating (corn; [3]): 0
Corn plant response rating (corn; [4]): 2
Corn plant response rating (corn; [5]): 0
Plant response rating, Corn (corn; [6]): 0
Plant response rating, Corn (corn; [7]): 0
Rice plant response rating (rice; [8]): 0
Rice plant response rating (rice; [9]): 0
Rice plant response rating (rice; [10]): 0
Rice plant response rating (rice; [11]): 0
Plant response rating, Nutsedge (purple nutsedge; [1]): 0
Nutsedge plant response rating (purple nutsedge; [2]): 0
Nutsedge plant response rating (purple nutsedge; [3]): 0
Nutsedge plant response rating (purple nutsedge; [4]): 0
Nutsedge plant response rating (purple nutsedge; [5]): 0
Plant response rating, Nutsedge (purple nutsedge; [6]): 0
Plant response rating, Nutsedge (purple nutsedge; [7]): 0
Plant response rating, Bedstraw (bedstraw; Rate 125 g/ha, scale 0 to 10, 0 is no effect, 10 is complete control): 5
Plant response rating, Bedstraw (bedstraw; Rate 250 g/ha, scale of 0 to 10 where 0 is no effect and 10 is complete control): 7
Plant response rating, Wild oats (wild oat; [1]): 0
Wild oats plant response rating (wild oat; [2]): 0
Wild oats plant response rating (0 to 10 scale) (wild oat; Preemergence, Rate 125 g/ha): 1
Wild oats plant response rating (wild oat; [3]): 3
Wild oats plant response rating (wild oat; [4]): 3
Wild oats plant response rating (wild oat; [5]): 0
Plant response rating, Wild oats (wild oat; [6]): 0
Plant response rating, Wild oats (wild oat; [7]): 0
Plant response rating, Wheat (wheat; [1]): 0
Wheat plant response rating (wheat; [2]): 0
Wheat plant response rating (0 to 10 scale) (wheat; Preemergence, Rate 125 g/ha): 0
Wheat plant response rating (wheat; [3]): 0
Wheat plant response rating (wheat; [4]): 2
Wheat plant response rating (wheat; [5]): 0
Plant response rating, Wheat (wheat; [6]): 0
Plant response rating, Wheat (wheat; [7]): 0
Ducksalad plant response rating (duck salad; [8]): 0
Ducksalad plant response rating (duck salad; [9]): 0
Ducksalad plant response rating (duck salad; [10]): 0
Ducksalad plant response rating (duck salad; [11]): 0
Plant response rating, Soybean (soybean; [1]): 5
Soybean plant response rating (soybean; [2]): 0
Soybean plant response rating (0 to 10 scale) (soybean; Preemergence, Rate 125 g/ha): 0
Soybean plant response rating (soybean; [3]): 0
Soybean plant response rating (soybean; [4]): 0
Soybean plant response rating (soybean; [5]): 3
Plant response rating, Soybean (soybean; [6]): 5
Plant response rating, Soybean (soybean; [7]): 6
Plant response rating, Rape (rape; [1]): 0
Rape plant response rating (rape; [2]): 0
Rape plant response rating (0 to 10 scale) (rape; Preemergence, Rate 125 g/ha): 0
Rape plant response rating (rape; [3]): 0
Rape plant response rating (rape; [4]): 1
Rape plant response rating (rape; [5]): 0
Plant response rating, Rape (rape; [6]): 1
Plant response rating, Rape (rape; [7]): 3
Plant response rating, B. signalgrass (surinam grass; [1]): 0
B. signalgrass plant response rating (surinam grass; [2]): 0
B. signalgrass plant response rating (0 to 10 scale, 0 is no effect, 10 is complete control) (surinam grass; Preemergence, Rate 125 g/ha): 0
B. signalgrass plant response rating (surinam grass; [3]): 3
B. signalgrass plant response rating (surinam grass; [4]): 7
B. signalgrass plant response rating (surinam grass; [5]): 0
Plant response rating, B. signalgrass (surinam grass; [6]): 0
Plant response rating, B. signalgrass (surinam grass; [7]): 0
Plant response rating, Blackgrass (blackgrass; [1]): 0
Blackgrass plant response rating (blackgrass; [2]): 0
Blackgrass plant response rating (0 to 10 scale) (blackgrass; Preemergence, Rate 125 g/ha): 5
Blackgrass plant response rating (blackgrass; [3]): 7
Blackgrass plant response rating (blackgrass; [4]): 8
Blackgrass plant response rating (blackgrass; [5]): 0
Plant response rating, Blackgrass (blackgrass; [6]): 0
Plant response rating, Blackgrass (blackgrass; [7]): 1
Plant response rating, Sugarbeets (sugar beet; [1]): 0
Sugarbeets plant response rating (sugar beet; [2]): 0
Sugarbeets plant response rating (0 to 10 scale) (sugar beet; Preemergence, Rate 125 g/ha): 0
Sugarbeets plant response rating (sugar beet; [3]): 0
Sugarbeets plant response rating (sugar beet; [4]): 2
Sugarbeets plant response rating (sugar beet; [5]): 0
Plant response rating, Sugarbeets (sugar beet; [6]): 0
Plant response rating, Sugarbeets (sugar beet; [7]): 0
Plant response rating, Velvetleaf (velvetleaf; [1]): 0
Velvetleaf plant response rating (velvetleaf; [2]): 0
Velvetleaf plant response rating (0 to 10 scale) (velvetleaf; Preemergence, Rate 125 g/ha): 0
Velvetleaf plant response rating (velvetleaf; [3]): 0
Velvetleaf plant response rating (velvetleaf; [4]): 0
Velvetleaf plant response rating (velvetleaf; [5]): 0
Plant response rating, Velvetleaf (velvetleaf; [6]): 2
Plant response rating, Velvetleaf (velvetleaf; [7]): 2

Source: patent US6737383B1, “Herbicidal oxadiazolidines” (priority 1999, dated 2004)
